Results reported in PubChem BioAssay AID248 (DTP/NCI, 2004).
Where “and” joins values, the source holds several entries; their conditions need not be identical. Equal entries are not always repeated. Toxic doses and inconclusive results are not listed. No stated cut-off is given here; in the data, active means T/C of 150% or more; inactive means T/C below 125%.

Tested on: L1210 leukemia ip in BDF1 mice, survival T/C
Experiment: NCI In Vivo Anticancer Drug Screen. Data for tumor model L1210 Leukemia (intraperitoneal) in B6D2F1 (BDF1) mice
Conditions: endpoint: mean survival time, higher = longer survival
Outline: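 Read-out is survival time, reported as the treated-group measurement over the vehicle-control measurement.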

[1] = dose: 100.0 mg/kg/injection, schedule: Q01DX009 (ip), vehicle: Klucel (hydroxypropylcellulose) (HPC)
[2] = dose: 100.0 mg/kg/injection, schedule: Q04DX003 (ip), vehicle: saline
[3] = dose: 200.0 mg/kg/injection, schedule: Q04DX003 (ip), vehicle: saline
[4] = dose: 50.0 mg/kg/injection, schedule: Q01DX001 (ip), vehicle: saline
[5] = dose: 100.0 mg/kg/injection, schedule: Q01DX001 (ip), vehicle: saline
[6] = dose: 200.0 mg/kg/injection, schedule: Q01DX001 (ip), vehicle: saline
[7] = dose: 100.0 mg/kg/injection, schedule: Q04DX003 (ip), vehicle: Klucel (hydroxypropylcellulose) (HPC)
[8] = dose: 200.0 mg/kg/injection, schedule: Q04DX003 (ip), vehicle: Klucel (hydroxypropylcellulose) (HPC)
[9] = dose: 400.0 mg/kg/injection, schedule: Q04DX003 (ip), vehicle: Klucel (hydroxypropylcellulose) (HPC)
[10] = dose: 100.0 mg/kg/injection, schedule: Q01DX009 (ip), vehicle: saline with Tween-80
[11] = dose: 100.0 mg/kg/injection, schedule: Q04DX003 (ip), vehicle: saline with Tween-80
[12] = dose: 200.0 mg/kg/injection, schedule: Q01DX009 (ip), vehicle: saline with Tween-80
[13] = dose: 200.0 mg/kg/injection, schedule: Q04DX003 (ip), vehicle: saline with Tween-80
[14] = dose: 400.0 mg/kg/injection, schedule: Q01DX009 (ip), vehicle: saline with Tween-80
[15] = dose: 400.0 mg/kg/injection, schedule: Q04DX003 (ip), vehicle: saline with Tween-80

Measured: T/C

CC(=O)Nc1ccc(OC(=O)Nc2cc(C(F)(F)F)ccc2Cl)cc1
inactive: [1] 93 % of control | dose: 200.0 mg/kg/injection, schedule: Q01DX009 (ip), vehicle: Klucel (hydroxypropylcellulose) (HPC) 111 % of control

CC(=O)N1CCOCC1
inactive: [2] 93 % of control | [3] 98 % of control | dose: 400.0 mg/kg/injection, schedule: Q04DX003 (ip), vehicle: saline 102 % of control

ClCc1cccc(CCl)c1
inactive: [4] 95 % of control | dose: 50.0 mg/kg/injection, schedule: Q01DX009 (ip), vehicle: saline sonified 103 % of control | [5] 95 % of control | dose: 100.0 mg/kg/injection, schedule: Q01DX009 (ip), vehicle: saline sonified 102 % of control | [6] 97 % of control | dose: 200.0 mg/kg/injection, schedule: Q01DX009 (ip), vehicle: saline sonified 103 % of control

CCCCCCC(/C=N\NC(=O)c1cccc2ccccc12)=C\c1ccccc1
inactive: [6] 97 % of control

COc1ccc(C(=O)c2ccccc2)c(OC(=O)Nc2cc([N+](=O)[O-])ccc2F)c1
inactive: [7] 95 % of control | [8] 101 % of control | [9] 98 % of control

OC/C=C\C1(O)CCCCC1
inactive: dose: 75.0 mg/kg/injection, schedule: Q01DX001 (ip), vehicle: saline 98 % of control | dose: 150.0 mg/kg/injection, schedule: Q01DX001 (ip), vehicle: saline 96 % of control

COC(=O)C1CCCN(C)C1c1c[nH]c2ccccc12 (stereo not given)
inactive: dose: 75.0 mg/kg/injection, schedule: Q01DX001 (ip), vehicle: other 90 % of control | dose: 150.0 mg/kg/injection, schedule: Q01DX001 (ip), vehicle: other 106 % of control

CCC(Cl)COP(=O)(OCC(Cl)CC)C(CC)OP(=S)(OCC(Cl)CC)OCC(Cl)CC (stereo not given)
inactive: dose: 87.5 mg/kg/injection, schedule: Q01DX009 (ip), vehicle: Klucel (hydroxypropylcellulose) (HPC) 95 % of control | dose: 175.0 mg/kg/injection, schedule: Q01DX009 (ip), vehicle: Klucel (hydroxypropylcellulose) (HPC) 99 % of control

OCC1OC(n2cnc3c(Cl)ncnc32)C(O)C1O (stereo not given)
inactive: dose: 62.5 mg/kg/injection, schedule: Q01DX009 (ip), vehicle: saline 96 % of control | dose: 62.5 mg/kg/injection, schedule: Q01DX010 (ip), vehicle: saline 102 % of control | dose: 62.5 mg/kg/injection, schedule: Q01DX Z (ip), vehicle: carboxymethylcellulose (CMC) 102 % of control | [1] 102 % of control | dose: 125.0 mg/kg/injection, schedule: Q01DX009 (ip), vehicle: saline 93 % of control and 89 % of control | dose: 125.0 mg/kg/injection, schedule: Q01DX010 (ip), vehicle: saline 89 % of control and 92 % of control | dose: 125.0 mg/kg/injection, schedule: Q01DX Z (ip), vehicle: carboxymethylcellulose (CMC) 96 % of control | dose: 250.0 mg/kg/injection, schedule: Q01DX009 (ip), vehicle: saline 96 % of control and 91 % of control | dose: 250.0 mg/kg/injection, schedule: Q01DX010 (ip), vehicle: saline 100 % of control and 92 % of control | dose: 250.0 mg/kg/injection, schedule: Q01DX Z (ip), vehicle: carboxymethylcellulose (CMC) 110 % of control | dose: 300.0 mg/kg/injection, schedule: Q01DX009 (ip), vehicle: Klucel (hydroxypropylcellulose) (HPC) 101 % of control | dose: 440.0 mg/kg/injection, schedule: Q01DX001 (ip), vehicle: carboxymethylcellulose (CMC) 96 % of control | dose: 500.0 mg/kg/injection, schedule: Q01DX009 (ip), vehicle: Klucel (hydroxypropylcellulose) (HPC) 100 % of control | dose: 500.0 mg/kg/injection, schedule: Q01DX009 (ip), vehicle: saline 96 % of control and 98 % of control | dose: 500.0 mg/kg/injection, schedule: Q01DX010 (ip), vehicle: saline 97 % of control and 88 % of control | dose: 500.0 mg/kg/injection, schedule: Q01DX Z (ip), vehicle: carboxymethylcellulose (CMC) 94 % of control | dose: 670.0 mg/kg/injection, schedule: Q01DX001 (ip), vehicle: carboxymethylcellulose (CMC) 95 % of control | dose: 1000.0 mg/kg/injection, schedule: Q01DX001 (ip), vehicle: carboxymethylcellulose (CMC) 95 % of control | dose: 1000.0 mg/kg/injection, schedule: Q01DX009 (ip), vehicle: Klucel (hydroxypropylcellulose) (HPC) 106 % of control | dose: 1500.0 mg/kg/injection, schedule: Q01DX001 (ip), vehicle: carboxymethylcellulose (CMC) 90 % of control | dose: 2250.0 mg/kg/injection, schedule: Q01DX001 (ip), vehicle: carboxymethylcellulose (CMC) 97 % of control

CCC1(OC(C)=O)C(=O)OCc2c1cc1n(c2=O)Cc2cc3ccccc3nc2-1 (stereo not given)
inactive: dose: 0.13 mg/kg/injection, schedule: Q01DX009 (ip), vehicle: carboxymethylcellulose (CMC) 96 % of control | dose: 0.13 mg/kg/injection, schedule: Q01DX Z (ip), vehicle: water 93 % of control | dose: 0.22 mg/kg/injection, schedule: Q01DX Z (ip), vehicle: water 116 % of control | dose: 0.25 mg/kg/injection, schedule: Q01DX009 (ip), vehicle: carboxymethylcellulose (CMC) 96 % of control | dose: 0.36 mg/kg/injection, schedule: Q01DX Z (ip), vehicle: water 108 % of control | dose: 0.5 mg/kg/injection, schedule: Q01DX009 (ip), vehicle: carboxymethylcellulose (CMC) 91 % of control | dose: 1.0 mg/kg/injection, schedule: Q01DX009 (ip), vehicle: carboxymethylcellulose (CMC) 104 % of control | dose: 1.0 mg/kg/injection, schedule: Q01DX Z (ip), vehicle: water 114 % of control | dose: 2.0 mg/kg/injection, schedule: Q01DX009 (ip), vehicle: carboxymethylcellulose (CMC) 91 % of control

O=[N+]([O-])c1cccc([I+]c2ccccc2)c1
inactive: [4] 91 % of control | [5] 95 % of control | [6] 101 % of control

CC(=O)OC1C(C(=O)O)CC(C(=O)O)C1OC(C)=O (stereo not given)
inactive: dose: 88.0 mg/kg/injection, schedule: Q01DX001 (ip), vehicle: saline 88 % of control | [5] 108 % of control | dose: 133.0 mg/kg/injection, schedule: Q01DX001 (ip), vehicle: saline 98 % of control | [6] 98 % of control | dose: 300.0 mg/kg/injection, schedule: Q01DX001 (ip), vehicle: saline 98 % of control | dose: 400.0 mg/kg/injection, schedule: Q01DX001 (ip), vehicle: saline 106 % of control

COc1ccc(/C=C(\C#N)c2cccc3ccccc23)cc1
inactive: [7] 98 % of control | [8] 105 % of control | [9] 90 % of control

COC1(c2ccc(Cl)cc2)OC(=O)C(c2ccccc2)=C1Cc1ccccc1 (stereo not given)
inactive: dose: 12.5 mg/kg/injection, schedule: Q01DX009 (ip), vehicle: saline with Tween-80 93 % of control | dose: 25.0 mg/kg/injection, schedule: Q01DX009 (ip), vehicle: saline with Tween-80 89 % of control | dose: 50.0 mg/kg/injection, schedule: Q01DX009 (ip), vehicle: saline with Tween-80 100 % of control

CCOC(=O)C12CC=CC(CCC1)C2=O (stereo not given) (tested in a mixture with another compound)
inactive: [10] 112 % of control | [11] 103 % of control | [12] 101 % of control | [13] 102 % of control | [14] 101 % of control | [15] 105 % of control

CCOC(=O)N/N=C(/C)OCC
inactive: [2] 102 % of control | [3] 102 % of control

CC1(Cl)C(=O)NC(=O)NC1=O
inactive: dose: 25.0 mg/kg/injection, schedule: Q04DX003 (ip), vehicle: saline 96 % of control | dose: 50.0 mg/kg/injection, schedule: Q04DX003 (ip), vehicle: saline 96 % of control

O=P(NO)(Oc1ccccc1)Oc1ccccc1
inactive: dose: 50.0 mg/kg/injection, schedule: Q01DX001 (ip), vehicle: carboxymethylcellulose (CMC) 101 % of control | dose: 100.0 mg/kg/injection, schedule: Q01DX001 (ip), vehicle: carboxymethylcellulose (CMC) 95 % of control | dose: 200.0 mg/kg/injection, schedule: Q01DX001 (ip), vehicle: carboxymethylcellulose (CMC) 100 % of control

CN(C)c1ccc(NC(=O)Nc2cccc(Cl)c2)cc1
inactive: [10] 91 % of control | [11] 94 % of control | [12] 94 % of control | [13] 100 % of control | [14] 92 % of control | [15] 92 % of control
